Experiment [1] deals with WNT-TCF targets. Put plainly: RT-qPCR gene expression in Ls174T cells. The format is cell-based, human. To be noted: for fold induction at 0.5 µM / fold induction at 5 µM: Homo sapiens. The protocol:
(§1) RT-qPCR was performed as in Melotti et al. (2014, supra) using BioRad equipment and reagents. Cells cultured in nitro were treated with the desired concentration of drug in DMEM-F12 and reduced serum (2.5% FBS) for 16h, unless otherwise noted, and collected in Trizol (Sigma) before total RNA extraction and cDNA synthesis. Primers were as in Table 1. HPRT (gene encoding Hypoxanthine phosphoribosyltransferase 1) and βACTIN were used as housekeeping controls for normalization.
Compounds have been tested for the transcriptional modulation of a restricted TCF signature in human colon cancer Ls174T cells. These included the direct targets AXIN2 (gene encoding a protein axis inhibition protein 2), LGR5 (gene encoding encodes leucine-rich repeat-containing G-protein coupled receptor 5) and cMYC (a regulator gene encoding a transcription factor), which should be repressed by WNT-TCF response antagonists and p21 (or CDKN1A, gene encoding a cyclin-dependent kinase inhibitor that inhibits the complexes of CDK2 and CDK1), which should be induced.
A general note: Quantitative PCR measures a nucleic acid by following its amplification.

The test system of a further experiment is CC14 cells. Put plainly: Epithelial island morphology of CC14 cells. The format is cell-based, human. To be noted: 24h; for epithelial island morphology: 1 µM. The protocol: Similar phenotypes were only observed at 10 µM of CAP1 or 5 µM of CAP3. CAP2 was thus chosen for further detailed analyses.
The next experiment relates to cell proliferation. Briefly: BrdU incorporation assay. The experiment is classed as cell-based. To be noted: 10 µM; 16h. The protocol: Cells incubated in vitro with different compounds were treated in DMEM-F12 with reduced serum (2.5% FBS) for 20 min with BrdU (5-bromo-2'-deoxyuridine; 10mg/ml, Sigma), washed and fixed with fresh paraformaldehyde (PFA; 4%, pH 8) followed by acid treatment and neutralization (Melotti et al., 2014, supra). Antibody analyses used anti-BrdU antibodies (supplied by University of Iowa Hybridoma Bank) and rhodamine-coupled anti-mouse secondary antibodies (Invitrogen Molecular Probes). Nuclei were counterstained with DAPI (4',6-diamidino-2-phenylindole; Sigma).
(In general: Uptake of a labelled nucleoside into DNA is a usual measure of proliferation.)

Experiment [2] deals with WNT-TCF targets. Briefly: RT-qPCR gene expression in CC14 primary colon cancer cells. The experiment is classed as cell-based, human. More on the design: cMYC expression: scale not given here. The settings on record: 100 nM; Example 2 cells (CC14). The protocol:
as §1
Primary colon cells CC14 were cultured in DMEM-F12 with 10% FBS under standard in vitro conditions.
Primary colon cells CC14, CC36 and mCC11, colon cancer cell lines DLD1, HT29, Ls174T, melanoma cell line MeWo, glioblastoma cell lines U87 and U251, and the lung cancer cell line H358 were cultured in DMEM-F12 with 10% FBS under standard in nitro conditions.

The mark [3] stands for this setting: LS174T, 16 h, read-out: AXIN2 expression.
[4] abbreviates: LS174T, 16 h, read-out: CDKN1A expression.
Where [5] appears, read: LS174T, 16 h, read-out: cMYC expression.
[6] abbreviates: Ls174T, 0.5µM, 16h, over DMSO-treated controls, read-out: AXIN2 expression.
Setting [7] is: Ls174T, 0.5µM, 16h, over DMSO-treated controls, read-out: CDKN1A expression.
[8] abbreviates: Ls174T, 0.5µM, 16h, over DMSO-treated controls, read-out: LGR5 expression.
[9] abbreviates: Ls174T, 0.5µM, 16h, over DMSO-treated controls, read-out: cMYC expression.
The mark [10] stands for this setting: Ls174T, 0.5µM, 16h, over DMSO-treated controls.
[11] abbreviates: Ls174T, 5µM, 16h, over DMSO-treated controls.

Read-outs that look alike come from different tables or passages of the source.

Consider `C[C@H]1O[C@@H](O[C@H]2[C@@H](O)C[C@H](O[C@H]3[C@@H](O)C[C@H](O[C@H]4CC[C@@]5(C)[C@H](CC[C@@H]6[C@@H]5CC[C@]5(C)[C@@H](C7=CC(=O)OC7)[C@@H](O)C[C@]65O)C4)O[C@@H]3C)O[C@@H]2C)C[C@H](O)[C@@H]1O` [Gitoxin, gitoxin, reference compound], for which the fold induction at 0.5 µM in the experiment on WNT-TCF targets [1] (setting [3]) stood at 0.4; in the experiment on WNT-TCF targets [1] (setting [4]), 1.3; with WNT-TCF targets [1] (setting [5]) it was 0.8.
With `CO[C@H]1C[C@H](O[C@H]2CC[C@@]3(C)[C@H](CC[C@@H]4[C@@H]3CC[C@]3(C)[C@@H](C5=CC(=O)OC5)[C@@H](OC(C)=O)C[C@]43O)C2)O[C@@H](C)[C@@H]1O` [Oleandrin, oleandrin, reference compound], the fold induction at 0.5 µM in the experiment with WNT-TCF targets [1] (setting [6]) is 1.6; in the experiment on WNT-TCF targets [1] (setting [7]) it was 1.1; in the experiment on WNT-TCF targets [1] (setting [8]), 0.5; with WNT-TCF targets [1] (setting [9]), 0.1.
Take “2,6-dimethyltetrahydropyran-3,4,5-triol; ethane; 3-(3,14,16-trihydroxy-10,13-dimethyl-1,2,3,4,5,6,7,8,9,11,12,15,16,17-tetradecahydro cyclopenta[a]phenanthren-17-yl)-2H-furan-5-one [CAP3]”: in the experiment with CC14 cells, the epithelial island morphology result is given as “maintained” and the “concentration at which disrupted morphology phenotype was observed” value stood at 5 µM. In the experiment on WNT-TCF targets [1] (Ls174T, 10 µM, 16h), this compound registered an AXIN2 expression of 0.7, a CDKN1A expression of 6.3, an LGR5 expression of 0.2 and a cMYC expression of 0.2.
For the compound `C[C@H]1O[C@@H](O[C@H]2[C@@H](O)C[C@H](O[C@H]3[C@@H](O)C[C@H](O[C@H]4CC[C@@]5(C)[C@H](CC[C@@H]6[C@@H]5C[C@@H](O)[C@]5(C)[C@@H](C7=CC(=O)OC7)CC[C@]65O)C4)O[C@@H]3C)O[C@@H]2C)C[C@H](O)[C@@H]1O` [Digoxin, digoxin, reference compound], the fold induction at 0.5 µM stood at 0.5 in the experiment on WNT-TCF targets [1] (setting [6]), 3 in the experiment on WNT-TCF targets [1] (setting [7]), 6.6 in the experiment on WNT-TCF targets [1] (setting [8]) and 1.1 with WNT-TCF targets [1] (setting [9]).
As for `C[C@@H]1O[C@@H](O[C@H]2C[C@@H](O)[C@]3(CO)[C@H]4[C@H](O)C[C@]5(C)[C@@H](C6=CC(=O)OC6)CC[C@]5(O)[C@@H]4CC[C@]3(O)C2)[C@H](O)[C@H](O)[C@H]1O` [Ouabain, ouabain, reference compound], the fold induction at 0.5 µM turned out to be 0.8 in the experiment with WNT-TCF targets [1] (setting [6]), 10 with WNT-TCF targets [1] (setting [7]), 3.3 with WNT-TCF targets [1] (setting [8]) and 0.5 in the experiment on WNT-TCF targets [1] (setting [9]). For the same compound, the fold induction at 5 µM in the experiment on WNT-TCF targets [1] (Ls174T, 5µM, 16h, over DMSO-treated controls, read-out: AXIN2 expression) was 1; in the experiment with WNT-TCF targets [1] (Ls174T, 5µM, 16h, over DMSO-treated controls, read-out: LGR5 expression), 1.4.
`CC1=C(C)C(=O)O[C@@H]([C@@H](C)[C@H]2CC[C@H]3[C@@H]4[C@@H]5O[C@@H]5[C@@]5(O)CC=CC(=O)[C@]5(C)[C@H]4CC[C@]23C)C1` [Withanolide B, withanolide B, reference compound]: in the experiment with WNT-TCF targets [1] (setting [10]), the AXIN2 expression came to 1.1, the CDKN1A expression stood at 1.9, the LGR5 expression stood at 1.3 and the cMYC expression is listed as 1.3. For the same compound, in the experiment with WNT-TCF targets [1] (setting [11]), the AXIN2 expression came to 1.3 and the LGR5 expression turned out to be 1.4.
For the compound `CC1=C(C)C(=O)O[C@@H]([C@@](C)(O)[C@]2(O)CC[C@@]3(O)[C@@H]4CC=C5C[C@@H](O[C@@H]6O[C@H](CO)[C@@H](O)[C@H](O)[C@H]6O)CC(=O)[C@]5(C)[C@H]4CC[C@]23C)C1` [CAP1, (14R,17S,20R,22R)-3β,14,17,20-Tetrahydroxy-1-oxo-witha-5,24-dienolide 3-O-β-D-glucopyranoside], in the experiment on CC14 cells, the epithelial island morphology result is on record as “maintained” and the “concentration at which disrupted morphology phenotype was observed” value is 10 µM. In addition, in the experiment with cell proliferation, the “reduction of BrdU incorporation” value is more than 50%. In addition, in the experiment with WNT-TCF targets [2], the AXIN2 expression turned out to be 1.1, the LGR5 expression came out at 0.8 and the cMYC expression is reported as 1.2. In the experiment with WNT-TCF targets [1] (Ls174T, 10 µM, 16h), this compound registered an AXIN2 expression of 0.7, a CDKN1A expression of 2.5, an LGR5 expression of 0.2 and a cMYC expression of 0.1.
Turning to `CO[C@H]1C[C@H](O[C@H]2CC[C@]3(C=O)[C@H]4CC[C@]5(C)[C@@H](C6=CC(=O)OC6)CC[C@]5(O)[C@@H]4CC[C@]3(O)C2)O[C@H](C)[C@H]1O` [Cymarin, cymarin, reference compound], the fold induction at 0.5 µM in the experiment with WNT-TCF targets [1] (setting [6]) stood at 1; in the experiment on WNT-TCF targets [1] (setting [7]), 0.9; with WNT-TCF targets [1] (setting [8]), 0.9; in the experiment on WNT-TCF targets [1] (setting [9]), 1.
For `C[C@@H]1O[C@@H](O[C@H]2CC[C@]3(C=O)[C@H]4CC[C@]5(C)[C@@H](C6=CC(=O)OC6)CC[C@]5(O)[C@@H]4CC[C@]3(O)C2)[C@H](O)[C@H](O)[C@H]1O` [Convallatoxin, convallatoxin, reference compound], the fold induction at 0.5 µM with WNT-TCF targets [1] (setting [3]) came to 1.7; in the experiment on WNT-TCF targets [1] (setting [4]) it was 0.3; in the experiment on WNT-TCF targets [1] (LS174T, 16 h, read-out: LGR5 expression), 1.6; with WNT-TCF targets [1] (setting [5]), 0.2.
Turning to `C[C@]12CC[C@H](O)C[C@H]1CC[C@@H]1[C@@H]2CC[C@]2(C)[C@@H](C3=CC(=O)OC3)[C@@H](O)C[C@]12O` [Gitoxigenin, gitoxigenin, reference compound], the fold induction at 0.5 µM in the experiment with WNT-TCF targets [1] (setting [6]) turned out to be 1; in the experiment on WNT-TCF targets [1] (setting [7]), 0.3; in the experiment on WNT-TCF targets [1] (setting [8]) it was 0.6; in the experiment on WNT-TCF targets [1] (setting [9]) it was 0.4.
`C[C@H]1O[C@@H](O[C@H]2[C@@H](O)C[C@H](O[C@H]3[C@@H](O)C[C@H](O[C@H]4CC[C@@]5(C)[C@H](CC[C@@H]6[C@@H]5CC[C@]5(C)[C@@H](C7=CC(=O)OC7)CC[C@]65O)C4)O[C@@H]3C)O[C@@H]2C)C[C@H](O)[C@@H]1O` [Digitoxin, digitoxin, reference compound]: the fold induction at 0.5 µM worked out at 0.6 with WNT-TCF targets [1] (setting [6]), 1.7 in the experiment with WNT-TCF targets [1] (setting [7]), 2.1 in the experiment on WNT-TCF targets [1] (setting [8]) and 0.2 in the experiment on WNT-TCF targets [1] (setting [9]). For the same compound, in the experiment with WNT-TCF targets [1] (Ls174T, lower doses 100 and 10 nM), the LGR5 repression result is “lack of repressing on LGR5”.
In the experiment on WNT-TCF targets [1] (setting [10]), `CC1=C(C)C(=O)O[C@@H]([C@](C)(O)[C@H]2CC[C@H]3[C@@H]4[C@@H]5O[C@@H]5[C@@]5(O)CC=CC(=O)[C@]5(C)[C@H]4CC[C@]23C)C1` [Withanolide A, withanolide A, reference compound] had an AXIN2 expression of 0.8, a CDKN1A expression of 0.7, an LGR5 expression of 0.8 and a cMYC expression of 0.4. In the experiment on WNT-TCF targets [1] (setting [11]), this compound returned an AXIN2 expression of 1.8 and an LGR5 expression of 1.3.
Take `CO[C@H]1[C@H](O)[C@H](O[C@H]2CC[C@@]3(C)[C@H](CC[C@@H]4[C@@H]3CC[C@]3(C)[C@@H](C5=CC(=O)OC5)CC[C@]43O)C2)O[C@@H](C)[C@@H]1O` [Neriifolin, neriifolin, reference compound]: the fold induction at 0.5 µM in the experiment on WNT-TCF targets [1] (setting [6]) worked out at 1.2; in the experiment with WNT-TCF targets [1] (setting [8]), 1.8.

Source of the values: patent EP3248604A1, “AGENTS FOR MODULATION OF WNT-TCF SIGNALLING AND USES THEREOF” (UNIVERSITE DE GENEVE, priority 2016, dated 2017).
